Assay results as given in patent publication US20240408100A1, “TREATMENT METHODS FOR SUBJECTS HAVING CANCER WITH A DYSREGULATED MAPK AND/OR PI3K PATHWAY” (TAIHO PHARMACEUTICAL CO., LTD., priority 2021, published 2024).
Read-outs that look alike come from different tables or passages of the source.

Assays:
MCF7_NF1KD = assay: growth inhibition, 3 days; assay type: cell-based; details: Homo sapiens
Method: (§1) MCF7 cells cultured in phenol red-free RPMI1640 medium containing 10% charcoal stripped FBS were transfected with NF1 siRNA to a final concentration of […] using Lipofectamine RNAiMAX. The cells were then incubated for 1 day at 37° C., 5% CO2. After that, E2 (estrogen) was added to the medium at 1 nmol/L final concentration, and the cells were cultured for 3 days, after which the cells were collected and cell extracts were prepared.
(§2) To investigate the growth inhibition effect of Compound (1) on the NF1-depleted ER+/HER2− breast cancer cells, MCF7 and T47D, the serially diluted Compound (1) was exposed to the cells for 3 days as in the previous experiment.
(§3) The growth inhibition curve in MCF7 and T47D cells were obtained and the half maximal inhibitory concentration (IC50) value of growth inhibition were calculated as shown in Table 1.

MCF7 = assay: growth inhibition, 3 days; assay type: cell-based; details: Homo sapiens, MCF7, NF1 WT
Method: as §1, §2, §3

T47D_NF1KD = assay: growth inhibition, 3 days; assay type: cell-based
Method: as §1, §2, §3

T47D = assay: growth inhibition, 3 days; assay type: cell-based; details: Homo sapiens, NF1 WT
Method: as §1, §2, §3

[1] = tested on: LS180 human colorectal tumor xenografts; assay: antitumor effect in mice with LS180 xenograft tumors; assay type: in vivo; details: 80 mg/kg/day
Method: The oncogenic KRAS mutations are diverse, including not only G12C but also G12X and G13X in the mutation hotspot Glycine at […]. To determine whether Compound (1), which targets downstream of MAPK and PI3K signaling, is effective against G12D mutated cancers, an efficacy experiment of Compound (1) was conducted using subcutaneously transplanted LS180 tumor derived from colorectal cancers with KRAS G12D and PIK3CA and PTEN gene alterations.
Evaluation was conducted by comparing the efficacy of 80 mg/kg/day of Compound (1) with that of 1 mg/kg/day MEK inhibitor trametinib used as a reference group.

[2] = tested on: ER+/HER2− breast cancer cell lines; assay: immunoblotting, combination with fulvestrant, presence and absence of estrogen and NF1; assay type: cell-based; details: single agent; presence or absence of estrogen; NF1 wildtype and NF1 knockdown cells
Method: The actual standard of care for ER+/HER2− breast cancer uses the adjuvant therapies such as tamoxifen, letrozole, or fulvestrant. Patients with recurrent or refractory tumors are treated with additional use of CDK4/6 inhibitors or Alpelisib for PIK3CA-mutated cancers.

[3] = with estrogen, read-out: IC50 (nmol/L) E2 (+)
[4] = without estrogen, read-out: IC50 (nmol/L) E2 (−)

`CC(C)(C)NCCNc1ccc(-c2nnc(C(F)(F)F)o2)nc1C1CCN(c2ncnc3c2C(C)(C)C(=O)N3)CC1` [Compound (1), 4-(4-(3-((2-(tert-butylamino)ethyl)amino)-6-(5-(trifluoromethyl)-1,3,4-oxadiazol-2-yl)pyridin-2-yl)piperidin-1-yl)-5,5-dimethyl-5H-pyrolo[2,3-d]pyrimidin-6(7H)-one] was tested, and the IC50 (MCF7_NF1KD; [3]) was 188 nmol/L, the IC50 (MCF7_NF1KD; [4]) was 294 nmol/L and the IC50 (MCF7; [3]) was 108 nmol/L. It also gave an IC50 (MCF7; [4]) of 89 nmol/L, an IC50 (T47D_NF1KD; [3]) of 37 nmol/L and an IC50 (T47D_NF1KD; [4]) of 111 nmol/L. For the same compound, the IC50 (T47D; [3]) was 65 nmol/L, the IC50 (T47D; [4]) was 125 nmol/L and the Number of deaths [1] was 0. For the same compound, the “T/C ratio (%)” value ([1]; Day 15) was 59%, the “Tumor volume (mm^3) Day 15 Mean ± SE” value ([1]; qd Day 1-14, po) was 867.8 ± 210.6 mm^3 and the apoptosis induction [2] was “observed”.
